Source: US9763956B2, “Diagnostic and treatment methods in subjects having or at risk of developing resistance to cancer therapy” (The Broad Institute, Inc., priority 2012, dated 2017)
Entries after “also recorded” stand apart in the source; their conditions may differ.

Experiments:
[1] = system: Bcl-2 in GSI resistant leukemia cells; assay: Bcl-2 protein level, Western blot (FIG. 9B); assay type: cell-based, human; conditions: GSI resistant (persister) cells
[2] = system: Bcl-2 in naïve leukemia cells; assay: Bcl-2 protein level, Western blot (FIG. 9B); assay type: cell-based, human; conditions: naïve population
MYC in naïve T-ALL cells = assay: MYC expression, Western blot (FIG. 12B, 17A); assay type: cell-based, human
Procedure: (§1) FIG. 17A is two photographs of western blots show MYC expression in naïve and persister cells after 3 day treatment with 2 μM AKT inhibitor, MK-2206, or 10 nM mTOR inhibitor, Rapamycin. FIG. 17B depicts graphs showing BRD4 binding at the MYC and BCL2 promoters.

[3] = system: Notch inhibitor resistant T-ALL cell lines; assay: Apoptosis (Caspaseglo); assay type: cell-based, human; conditions: resistant leukemia cells compared to naïve; day 4
Procedure: (§2) Notch inhibitor sensitive and resistant T-ALL cell lines were plated in 96 well plates and treated with vehicle, 1 uM GSI and/or increasing concentrations of the bet inhibitor JQ1. Cell viability was determined by measuring luminescence after Celltiterglo® (Promega) addition on day 6. Apoptosis was measured using Caspaseglo® (Promega) on day 4.

MYC in persister cells = assay: MYC expression, Western blot (FIG. 17A); assay type: cell-based, human
Procedure: as §1

[4] = system: Notch inhibitor resistant (persister) T-ALL cell lines; assay: Cell viability / proliferation (Celltiterglo luminescence); assay type: cell-based, human; conditions: compared to naïve cells, viability read on day 6
Procedure: as §2

[5] = system: Notch inhibitor sensitive (naïve) T-ALL cell lines; assay: as above; assay type: cell-based, human; conditions: JQ1 concentrations that arrest persisters
Procedure: as §2

[6] = Gastrointestinal toxicity, Periodic acid-Schiff (PAS) stain in Balb/c mice; assay type: in vivo, mouse; conditions: JQ1 given in addition to DBZ
Procedure: Balb/c mice were treated with DBZ+JQ1, DBZ, or vehicle alone. Hyperproliferation of globlet cells was measured by Periodic acid-Schiff (PAS) stain.

[7] = system: Notch inhibitor sensitive T-ALL cell lines; assay: Long-term culture of Notch inhibitor sensitive T-ALL cell lines with GSI (resistance modeling); assay type: cell-based, human
Procedure: Notch inhibitor sensitive T-ALL cell lines were cultured in the presence of 1 μM GSI in vitro. Cells were plated at 0.25×10^6/ml in 20 mL and split every 3-4 days. Cell viability, cell size and cell cycle were measured every 3-4 days. […] GSI-treated cells stopped proliferating between day 14 to 30 of culture, but eventually started proliferating again despite the presence of GSI with subsequent growth rates being equal or similar to untreated cells.

SMILES: Cc1sc2c(c1C)C(c1ccc(Cl)cc1)=N[C@@H](CC(=O)OC(C)(C)C)c1nnc(C)n1-2 [JQ1]
- Bcl-2 protein level / expression [1]: inhibited; also recorded: decreased level of Bcl-2 protein; also recorded: significantly reduced Bcl-2 expression
- Bcl-2 expression [2]: little effect
- MYC expression (MYC in naïve T-ALL cells): did not alter MYC
- apoptosis [3]: increase in apoptosis
- MYC expression (MYC in persister cells): significantly reduced MYC expression
- proliferation / survival of resistant (persister) leukemia cells [4]: decrease in proliferation; also recorded: proliferation arrest
- proliferation of naïve T-ALL cells [5]: well tolerated
- intestinal villi architecture (PAS stain) [6]: largely ameliorated villi architecture

SMILES: Cc1sc2c(c1C)C(c1ccc(Cl)cc1)=N[C@@H](CC(=O)OC(C)(C)C)c1nnc(C)n1-2 (single isomer, unassigned) [JQ1 enantiomer]
- proliferation / survival of resistant (persister) leukemia cells [4]: no effect

SMILES: CN(C)CC[C@H](CSc1ccccc1)Nc1ccc(S(=O)(=O)NC(=O)c2ccc(N3CCN(Cc4ccccc4-c4ccc(Cl)cc4)CC3)cc2)cc1[N+](=O)[O-] [ABT-737]
- proliferation / survival of resistant (persister) leukemia cells [4]: effectively killed persister cells

SMILES: C[C@H](NC(=O)Cc1cc(F)cc(F)c1)C(=O)N[C@H]1N=C(c2ccccc2)c2ccccc2N(C)C1=O [compound E]
- GSI concentration tolerated by persister cells relative to the IC50 [7]: more than 50 fold
